Measured values taken from patent US11028061B2, “Modulators of myocyte lipid accumulation and insulin resistance and methods of use thereof” (Sanford Burnham Prebys Medical Discovery Institute, priority 2015, dated 2021).

These compounds were tested on primary murine skeletal myocytes (assay: TAG accumulation in primary murine skeletal myocytes). Details: Mus musculus; primary murine skeletal myocytes; read-out: Activity Score (IC50), triacylglyceride (TAG) accumulation.
Assay type: cell-based

Row | SMILES | IC50 [nM]
1 | COc1cc(C(=O)Nc2nc(-c3ccc(C#N)cc3)cs2)ccc1OCC(=O)N1CCOCC1 [Cpd. 32, N-(4-(4-cyanophenyl)thiazol-2-yl)-3-methoxy-4-(2-morpholino-2-oxoethoxy)benzamide] | < 1000
2 | O=C(Nc1nc(-c2ccc(OC(F)F)cc2)cs1)c1ccc(OCC(=O)N2CCOCC2)cc1 [Cpd. 40, N-(4-(4-(difluoromethoxy)phenyl)thiazol-2-yl)-4-(2-morpholino-2-oxoethoxy)benzamide] | < 1000
3 | COc1ccc(-c2csc(NC(=O)c3ccc(OCC(=O)N4CCN(C)CC4)c(OC)c3)n2)cc1 [Cpd. 9, 3-methoxy-N-(4-(4-methoxyphenyl)thiazol-2-yl)-4-(2-(4-methylpiperazin-1-yl)-2-oxoethoxy)benzamide] | < 1000
4 | COc1ccc(-c2csc(NC(=O)c3ccc(N)c(OC)c3)n2)cc1 [compound 77, 4-amino-3-methoxy-N-(4-(4-methoxyphenyl)thiazol-2-yl)benzamide] | 1000 to 10000
5 | CCNC(=O)COc1ccc(C(=O)Nc2nc(-c3ccc(OC)cc3Cl)cs2)cc1 [Cpd. 59, N-(4-(2-chloro-4-methoxyphenyl)thiazol-2-yl)-4-(2-(ethylamino)-2-oxoethoxy)benzamide] | < 1000
6 | COc1cccc(-c2csc(NC(=O)c3cccc(OCC(=O)N4CCOCC4)c3)n2)c1 [Cpd. 96, N-(4-(3-methoxyphenyl)thiazol-2-yl)-3-(2-morpholino-2-oxoethoxy)benzamide] | 1000 to 10000
7 | COCCCNC(=O)COc1ccc(C(=O)Nc2nc(-c3ccc(OC)cc3)cs2)cc1OC [Cpd. 21, 3-methoxy-N-(4-(4-methoxyphenyl)thiazol-2-yl)-4-(2-((3-methoxypropyl)amino)-2-oxoethoxy)benzamide] | 1000 to 10000
8 | COc1cc(C(=O)Nc2nc(-c3ccc(OC(C)C)cc3)cs2)ccc1OCC(=O)N1CCOCC1 [Cpd. 29, N-(4-(4-isopropoxyphenyl)thiazol-2-yl)-3-methoxy-4-(2-morpholino-2-oxoethoxy)benzamide] | < 1000
9 | COc1cc(C(=O)Nc2cccc(-c3ccccc3)c2)ccc1OCC(=O)N1CCOCC1 [Cpd. 83, N-([1,1′-biphenyl]-3-yl)-3-methoxy-4-(2-morpholino-2-oxoethoxy)benzamide] | > 10000
10 | COc1ccc(-c2csc(NC(=O)c3ccc(OCC(=O)N4CCN(S(C)(=O)=O)CC4)c(OC)c3)n2)cc1 [Cpd. 13, 3-methoxy-N-(4-(4-methoxyphenyl)thiazol-2-yl)-4-(2-(4-(methylsulfonyl)piperazin-1-yl)-2-oxoethoxy)benzamide] | > 10000
11 | O=C(Nc1nc(-c2cccc(F)c2)cs1)c1ccc(OCC(=O)N2CCOCC2)cc1 [Cpd. 53, N-(4-(3-fluorophenyl)thiazol-2-yl)-4-(2-morpholino-2-oxoethoxy)benzamide] | < 1000
12 | COc1cc(C(=O)Nc2nc(-c3ccccc3)cs2)ccc1OCC(=O)N1CCOCC1 [Cpd. 25, 3-methoxy-4-(2-morpholino-2-oxoethoxy)-N-(4-phenylthiazol-2-yl)benzamide] | < 1000
13 | COCCNC(=O)CNc1ccc(C(=O)Nc2nc(-c3ccc(OC)cc3)cs2)cc1 [compound 69, 4-((2-((2-methoxyethyl)amino)-2-oxoethyl)amino)-N-(4-(4-methoxyphenyl)thiazol-2-yl)benzamide] | > 10000
14 | COc1cc(C(=O)Nc2nc(-c3ccc(C#N)cc3)cs2)ccc1O [Cpd. 6, N-(4-(4-cyanophenyl)thiazol-2-yl)-4-hydroxy-3-methoxybenzamide] | 1000 to 10000
15 | COC(=O)CNC(=O)COc1ccc(C(=O)Nc2nc(-c3ccc(OC)cc3)cs2)cc1OC [Cpd. 16, Methyl (2-(2-methoxy-4-((4-(4-methoxyphenyl)thiazol-2-yl)carbamoyl)phenoxy)acetyl)glycinate] | > 10000
16 | COc1cc(C(=O)Nc2nc(-c3ccc(Cl)cc3)cs2)ccc1OCC(=O)N1CCOCC1 [Cpd. 31, N-(4-(4-chlorophenyl)thiazol-2-yl)-3-methoxy-4-(2-morpholino-2-oxoethoxy)benzamide] | < 1000
17 | O=C(Nc1nc(-c2ccccc2)cs1)c1cccc(OCC(=O)N2CCOCC2)c1 [Cpd. 95, 3-(2-morpholino-2-oxoethoxy)-N-(4-phenylthiazol-2-yl)benzamide] | 1000 to 10000
18 | COc1ccc(-c2csc(NC(=O)c3cccc(OCC(=O)N4CCOCC4)c3)n2)cc1 [Cpd. 94, N-(4-(4-methoxyphenyl)thiazol-2-yl)-3-(2-morpholino-2-oxoethoxy)benzamide] | 1000 to 10000
19 | CNC(=O)CNc1ccc(C(=O)Nc2nc(-c3ccc(OC)cc3Cl)cs2)cc1 [compound 71, N-(4-(2-chloro-4-methoxyphenyl)thiazol-2-yl)-4-((2-(methylamino)-2-oxoethyl)amino)benzamide] | < 1000
20 | COc1ccc(-c2csc(NC(=O)c3ccc(OCCN4CCOCC4)c(OC)c3)n2)cc1 [Cpd. 90, 3-methoxy-N-(4-(4-methoxyphenyl)thiazol-2-yl)-4-(2-morpholinoethoxy)benzamide] | 1000 to 10000
21 | COc1ccc(-c2csc(NC(=O)c3ccc(OCC(=O)N4CCCCC4)c(OC)c3)n2)cc1 [Cpd. 8, 3-methoxy-N-(4-(4-methoxyphenyl)thiazol-2-yl)-4-(2-oxo-2-(piperidin-1-yl)ethoxy)benzamide] | 1000 to 10000

Row | SMILES | IC50 [nM]
22 | O=C(Nc1nc(-c2ccccc2F)cs1)c1ccc(OCC(=O)N2CCOCC2)cc1 [Cpd. 49, N-(4-(2-fluorophenyl)thiazol-2-yl)-4-(2-morpholino-2-oxoethoxy)benzamide] | < 1000
23 | CNC(=O)COc1ccc(C(=O)Nc2nc(-c3ccc(OC)cc3)cs2)cc1OC [Cpd. 18, 3-methoxy-N-(4-(4-methoxyphenyl)thiazol-2-yl)-4-(2-(methylamino)-2-oxoethoxy)benzamide] | < 1000
24 | CC(C)c1ccc(-c2csc(NC(=O)c3ccc(OCC(=O)N4CCOCC4)cc3)n2)cc1 [Cpd. 45, N-(4-(4-isopropylphenyl)thiazol-2-yl)-4-(2-morpholino-2-oxoethoxy)benzamide] | < 1000
25 | COc1ccc(-c2csc(NC(=O)c3ccc(O)c(OC)c3)n2)cc1 [Cpd. 1, 4-hydroxy-3-methoxy-N-(4-(4-methoxyphenyl)thiazol-2-yl)benzamide] | > 10000
26 | COc1ccc(-c2csc(NC(=O)c3ccc(OCC(=O)N(C)C)cc3)n2)c(Cl)c1 [Cpd. 60, N-(4-(2-chloro-4-methoxyphenyl)thiazol-2-yl)-4-(2-(dimethylamino)-2-oxoethoxy)benzamide] | < 1000
27 | COc1ccc(-c2csc(NC(=O)c3ccc(OCC(=O)N4CCOCC4)c(OC)c3)n2)c(OC)c1 [Cpd. 36, N-(4-(2,4-dimethoxyphenyl)thiazol-2-yl)-3-methoxy-4-(2-morpholino-2-oxoethoxy)benzamide] | < 1000
28 | COc1ccccc1-c1csc(NC(=O)c2ccc(OCC(=O)N3CCOCC3)cc2)n1 [Cpd. 50, N-(4-(2-methoxyphenyl)thiazol-2-yl)-4-(2-morpholino-2-oxoethoxy)benzamide] | < 1000
29 | COc1ccc(-c2csc(NC(=O)c3ccc(OCC(=O)NCC4CC4)c(OC)c3)n2)cc1 [Cpd. 10, 4-(2-((cyclopropylmethyl)amino)-2-oxoethoxy)-3-methoxy-N-(4-(4-methoxyphenyl)thiazol-2-yl)benzamide] | 1000 to 10000
30 | COc1ccc(-c2cnc(NC(=O)c3ccc(OCC(=O)N4CCOCC4)c(OC)c3)s2)cc1 [compound 80, 3-methoxy-N-(5-(4-methoxyphenyl)thiazol-2-yl)-4-(2-morpholino-2-oxoethoxy)benzamide] | > 10000
31 | COc1cc(C(=O)Nc2nc(-c3ccc(N4CCCC4)cc3)cs2)ccc1OCC(=O)N1CCOCC1 [Cpd. 34, 3-methoxy-4-(2-morpholino-2-oxoethoxy)-N-(4-(4-(pyrrolidin-1-yl)phenyl)thiazol-2-yl)benzamide] | < 1000
32 | Cc1cccc(-c2csc(NC(=O)c3ccc(OCC(=O)N4CCOCC4)cc3)n2)c1 [Cpd. 51, 4-(2-morpholino-2-oxoethoxy)-N-(4-(m-tolyl)thiazol-2-yl)benzamide] | < 1000
33 | CCc1ccc(-c2csc(NC(=O)c3ccc(OCC(=O)N4CCOCC4)cc3)n2)cc1 [Cpd. 44, N-(4-(4-ethylphenyl)thiazol-2-yl)-4-(2-morpholino-2-oxoethoxy)benzamide] | < 1000
34 | COc1ccc(-c2csc(NC(=O)c3ccc(NCC(=O)N(C)C)cc3)n2)cc1 [compound 68, 4-((2-(dimethylamino)-2-oxoethyl)amino)-N-(4-(4-methoxyphenyl)thiazol-2-yl)benzamide] | < 1000
35 | COc1cc(C(=O)Nc2nc(-c3ccc(OC(F)(F)F)cc3)cs2)ccc1OCC(=O)N1CCOCC1 [Cpd. 26, 3-methoxy-4-(2-morpholino-2-oxoethoxy)-N-(4-(4-(trifluoromethoxy)phenyl)thiazol-2-yl)benzamide] | < 1000
36 | COc1cccc(-c2csc(NC(=O)c3ccc(OCC(=O)N4CCOCC4)c(OC)c3)n2)c1 [Cpd. 35, 3-methoxy-N-(4-(3-methoxyphenyl)thiazol-2-yl)-4-(2-morpholino-2-oxoethoxy)benzamide] | 1000 to 10000
37 | COc1cc(C(=O)Nc2nc(-c3ccc4c(c3)OCO4)cs2)ccc1OCC(=O)N1CCOCC1 [Cpd. 39, N-(4-(benzo[d][1,3]dioxol-5-yl)thiazol-2-yl)-3-methoxy-4-(2-morpholino-2-oxoethoxy)benzamide] | 1000 to 10000
38 | COc1ccc2nc(NC(=O)c3ccc(OCC(=O)N4CCOCC4)cc3)sc2c1 [Cpd. 88, N-(6-methoxybenzo[d]thiazol-2-yl)-4-(2-morpholino-2-oxoethoxy)benzamide] | 1000 to 10000
39 | COc1ccc(-c2csc(NC(=O)c3ccc(OCC(=O)N4CCOCC4)cn3)n2)cc1 [Cpd. 92, N-(4-(4-methoxyphenyl)thiazol-2-yl)-5-(2-morpholino-2-oxoethoxy)picolinamide] | > 10000
40 | COc1ccc(-c2csc(NC(=O)c3ccc(OCC(=O)N4CCOCC4)cc3)n2)c(F)c1 [Cpd. 56, N-(4-(2-fluoro-4-methoxyphenyl)thiazol-2-yl)-4-(2-morpholino-2-oxoethoxy)benzamide] | < 1000
41 | COc1cc(C(=O)Nc2nc(-c3ccccc3)cs2)ccc1O [Cpd. 2, 4-hydroxy-3-methoxy-N-(4-phenylthiazol-2-yl)benzamide] | > 10000
42 | COc1ccc(-c2csc(NC(=O)CCC(=O)N3CCOCC3)n2)cc1 [Cpd. 82, N-(4-(4-methoxyphenyl)thiazol-2-yl)-4-morpholino-4-oxobutanamide] | 1000 to 10000
